Assay results reported in patent publication US5908868A, “Retinol derivatives useful for enhancing immune response” (priority 1995, dated 1999).
“Also recorded” adds a separate entry of the source.

Assays:
[1] = tested on: T cells; assay: T cell activation/proliferation; assay type: cell-based, murine; conditions: for substitution for retinol in T cell activation: with mitogen/anti-CD3; for T cell activation on its own: without mitogen
Description: They were seeded into 96-well flat-bottom plates at varying cellular densities in a final volume of 100 μl. In control experiments, cells were cultured in medium containing 10% FCS or 3% human serum and 5×10^-5 M 2 ME. […] Cultures were carried out in duplicate. Plates were incubated at 37° C. in a humidified 5% CO2 atmosphere. Cellular proliferation was determined by [^3 H] thymidine uptake (0.5 uCi/well; New England Nuclear, Boston, Mass.) after the incubation times indicated for each experiment with a 4 hour labeling pulse. Cells were harvested onto glass filter and [^3 H]TdR incorporation was determined by liquid scintillation counting. The data presented are the means of duplicate or six replicate cultures. The restriction to duplicate measurements was necessary to conserve scarce 14HRR. […] Each experiment was repeated at least twice.

[2] = tested on: lymph node T cells; assay: Proliferation of anti-CD3 activated lymph node T cells; assay type: cell-based, BALB/c mouse; conditions: anti-CD3
Source text: Growth curves of lymph node T cells depleted of antigen-presenting cells (FIG. 17A) with and without 10^-6 M retinol at 2×10^5 and 5×10^4 cells/well. (FIG. 17B) Dose-responses elicited by different retinoids in cultures of lymph node T cells depleted of antigen-presenting cells. Also shown are the growth curves of CD4^+ (FIG. 17C) and CD8^+ T lymphocytes (FIG. 17D) in the presence of either retinol, 14HRR, human serum or in their absence.
T lymphocytes, purified as described, 5×10^4 well, were activated with immobilized anti-CD3 antibody in ITLB medium. The indicated amounts of retinoids or human serum were added at initiation of cultures. […] 14HRR was added every 12 hours. DNA synthesis was measured by a 4 hour pulse with tritiated thymidine. SDs were ≤17%.
Mature T cells were obtained from pooled intestinal, axillary, inguinal and submandibular lymph nodes of 4 to 10-week-old BALB/c mice. To fractionate cells into CD4 and CD8 subsets and at the same time remove APC, a combination of adherence and complement lysis was used as follows:
Cells were cultured in serum-free medium, referred to as ITLB, containing RPMI 1640 supplemented with 8×10^-7 M insulin (5 μg/ml), 7×10^-8 M transferrin (5 μg/ml), 2×10^-6 M linoleic acid, 2×10^-6 M delipidated BSA (0.12 mg/ml), 2 mM L-glutamine, 1 mM sodium pyruvate and antibiotics. They were seeded into 96-well flat-bottom plates at varying cellular densities in a final volume of 100 μl. In control experiments, cells were cultured in medium containing 10% FCS or 3% human serum and 5×10^-5 M 2 ME. T cells and thymocytes were activated with immobilized, purified anti-mab CD3e or by the addition of Con A in the presence or absence of different concentrations of retinoids. Unless indicated otherwise, retinoids were replenished every 12 hours to maintain a reasonably constant concentration of these labile compounds in culture. The optimal concentration for stimulation of T cells was determined for each batch of anti-CD3 mAb and Con A. The optimal range of Con A was particularly narrow in serum-free medium (0.5-0.2 μg/ml) and varied with the cell density used. […] Cultures were carried out in duplicate. Plates were incubated at 37° C. in a humidified 5% CO2 atmosphere. Cellular proliferation was determined by [^3 H] thymidine uptake (0.5 uCi/well; New England Nuclear, Boston, Mass.) after the incubation times indicated for each experiment with a 4 hour labeling pulse. Cells were harvested onto glass filter and [^3 H]TdR incorporation was determined by liquid scintillation counting. The data presented are the means of duplicate or six replicate cultures. The restriction to duplicate measurements was necessary to conserve scarce 14HRR. They were within 20% of each other. Each experiment was repeated at least twice.

[3] = tested on: ERLD; assay: Retinol metabolism; assay type: in vitro ADME
Description: (§1) FBS. The FBS was preincubated at room temperature with 14.4 uCi [^3 H
(§2) retinol (NEN) for 4 h. The cell pellet was washed twice with PBS. The
(§3) retinoid were extracted according to MClean et al. 90 and separated on an
(§4) analytical c18 reverse phase column according to FIG. 7. The DPM wer
(§5) determined using an online scintillation counter.

[4] = tested on: RPMI; assay: Retinol metabolism; assay type: in vitro ADME; conditions: RPMI leukemia (ALL)
Description: as §1, §2, §3, §4, §5

[5] = tested on: SK3886; assay: Retinol metabolism; assay type: in vitro ADME
Description: as §1, §2, §3, §4, §5

[6] = tested on: EL-4; assay: Retinol metabolism; assay type: in vitro ADME, mouse
Description: as §1, §2, §3, §4, §5

[7] = tested on: P388D.1; assay: Retinol metabolism; assay type: in vitro ADME, mouse
Description: as §1, §2, §3, §4, §5

[8] = tested on: SLA; assay: Retinol metabolism; assay type: in vitro ADME, mouse
Description: as §1, §2, §3, §4, §5

[9] = tested on: Raji (4°); assay: Retinol metabolism; assay type: in vitro ADME, human
Description: as §1, §2, §3, §4, §5

[10] = tested on: Raji (37°); assay: Retinol metabolism; assay type: in vitro ADME, human
Description: as §1, §2, §3, §4, §5

[11] = tested on: 5/2; assay: Retinol metabolism; assay type: in vitro ADME, human
Description: as §1, §2, §3, §4, §5

[12] = tested on: N-tera2; assay: Retinol metabolism; assay type: in vitro ADME, human
Description: as §1, §2, §3, §4, §5

[13] = tested on: Hela; assay: Retinol metabolism; assay type: in vitro ADME, human
Description: as §1, §2, §3, §4, §5

[14] = tested on: SKL3; assay: Retinol metabolism; assay type: in vitro ADME, human
Description: as §1, §2, §3, §4, §5

With `CC(C=CC=C(C)C(O)CO)=CC=C1C(C)=CCCC1(C)C` (stereo not shown) [14HRR, 14-hydroxy-4,14-retro-retinol] as the compound, how does the “activity relative to all-trans retinol in T cells” value [1] read?
Its value is “as active”.

What about the “substitution for retinol in T cell activation” value [1] of the same compound?
Its value is “capable of supporting T cell activation and proliferation”.

What about the “substitution for retinol in T cell activation” value ([1]; listed as 14-hydroxy-retro-retinol) of the same compound?
The value was “effectively supports T cell activation in conjunction with a mitogen in lieu of retinol; also recorded: capable of supporting activation and sustaining proliferation of T cells”.

And the “T cell activation on its own” value [1]?
Its value is “unable to activate T cells on their own”.

What about the “stimulation of lymph node T cells” value [2] of the same compound?
Its value is “effective over the same dose range as observed for thymocytes”.

Which “activation in FCS-containing medium in absence of APC” value ([1]; additional retinol supplied, FCS medium) does the source give for `CC1=C(/C=C/C(C)=C/C=C/C(C)=C/CO)C(C)(C)CCC1` [retinol, all-trans retinol] here?
The value was “no activation”.

What about the optimally effective dose ([1]; given once in a 3-day culture) of the same compound?
The optimally effective dose was 2 µM.

And the optimally effective dose ([1]; provided at 12 hour intervals)?
The optimally effective dose was 0.2 µM.

What about the “T cell activation on its own” value [1] of the same compound?
Its value is “unable to activate T cells on their own”.

And the Total cts. [3]?
The Total cts. was 2.8 × 10^5 cts.

And the “Ester (% of taken up retinol)” value ([3]; overnight)?
The value was 20%.

What about the “P3 (% of taken up retinol)” value ([3]; overnight) of the same compound?
The value was 9%.

And the “Retinol (% of taken up retinol)” value ([3]; overnight)?
The value was 63%.

What about the Total cts. [4] of the same compound?
The Total cts. was 1.2 × 10^5 cts.

What about the “Ester (% of taken up retinol)” value ([4]; overnight) of the same compound?
Its value is 38%.

What about the “P3 (% of taken up retinol)” value ([4]; overnight) of the same compound?
Its value is 2%.

And the “Retinol (% of taken up retinol)” value ([4]; overnight)?
Its value is 58%.

What about the Total cts. ([5]; SK3886) of the same compound?
The Total cts. was 4.7 × 10^5 cts.

And the “Ester (% of taken up retinol)” value ([5]; SK3886, overnight)?
Its value is 2%.

What about the “P3 (% of taken up retinol)” value ([5]; SK3886, overnight) of the same compound?
Its value is 3%.

And the “Retinol (% of taken up retinol)” value ([5]; SK3886, overnight)?
The value was 92%.

What about the “stimulation of lymph node T cells” value [2] of the same compound?
Its value is “dependent on the presence of retinol”.

What about the Total cts. ([6]; EL-4) of the same compound?
Its Total cts. is 2.8 × 10^5 cts.

And the “Ester (% of taken up retinol)” value ([6]; EL-4, overnight)?
The value was 44%.

What about the “P3 (% of taken up retinol)” value ([6]; EL-4, overnight) of the same compound?
The value was 5%.

What about the “Retinol (% of taken up retinol)” value ([6]; EL-4, overnight) of the same compound?
Its value is 40%.

And the Total cts. ([7]; P388D.1)?
Its Total cts. is 1.4 × 10^5 cts.

And the “Ester (% of taken up retinol)” value ([7]; P388D.1, overnight)?
The value was 26%.

And the “P3 (% of taken up retinol)” value ([7]; P388D.1, overnight)?
The value was 0.5%.

What about the “Retinol (% of taken up retinol)” value ([7]; P388D.1, overnight) of the same compound?
Its value is 71%.

What about the Total cts. [8] of the same compound?
Its Total cts. is 6.1 × 10^5 cts.

And the “Ester (% of taken up retinol)” value ([8]; overnight)?
Its value is 9%.

What about the “P3 (% of taken up retinol)” value ([8]; overnight) of the same compound?
The value was 3%.

What about the “Retinol (% of taken up retinol)” value ([8]; overnight) of the same compound?
Its value is 85%.

And the Total cts. ([9]; 2.5 × 10^6 cells)?
Its Total cts. is 2.5 × 10^5 cts.

And the “Ester (% of taken up retinol)” value ([9]; overnight)?
Its value is 0%.

What about the “P3 (% of taken up retinol)” value ([9]; overnight) of the same compound?
The value was 0%.

And the “Retinol (% of taken up retinol)” value ([9]; overnight)?
The value was 99%.

And the Total cts. ([10]; 2.5 × 10^6 cells)?
The Total cts. was 4.0 × 10^5 cts.

And the “Ester (% of taken up retinol)” value ([10]; overnight)?
Its value is 14%.

And the “P3 (% of taken up retinol)” value ([10]; overnight)?
Its value is 3%.

And the “Retinol (% of taken up retinol)” value ([10]; overnight)?
The value was 79%.

What about the Total cts. ([11]; 5/2) of the same compound?
The Total cts. was 5.7 × 10^5 cts.

And the “Ester (% of taken up retinol)” value ([11]; 5/2, overnight)?
The value was 24%.

And the “P3 (% of taken up retinol)” value ([11]; 5/2, overnight)?
Its value is 4%.

And the “Retinol (% of taken up retinol)” value ([11]; 5/2, overnight)?
The value was 67%.

And the Total cts. ([12]; N-tera2)?
Its Total cts. is 13.5 × 10^5 cts.

What about the “Ester (% of taken up retinol)” value ([12]; N-tera2, overnight) of the same compound?
The value was 97%.

What about the “P3 (% of taken up retinol)” value ([12]; N-tera2, overnight) of the same compound?
The value was 0.4%.

What about the “Retinol (% of taken up retinol)” value ([12]; N-tera2, overnight) of the same compound?
Its value is 0.7%.

And the Total cts. [13]?
Its Total cts. is 1.0 × 10^5 cts.

And the “Ester (% of taken up retinol)” value ([13]; overnight)?
The value was 20%.

And the “P3 (% of taken up retinol)” value ([13]; overnight)?
Its value is 3%.

What about the “Retinol (% of taken up retinol)” value ([13]; overnight) of the same compound?
Its value is 71%.

What about the Total cts. ([14]; SKL3) of the same compound?
The Total cts. was 1.6 × 10^5 cts.

What about the “Ester (% of taken up retinol)” value ([14]; SKL3, overnight) of the same compound?
The value was 24%.

What about the “P3 (% of taken up retinol)” value ([14]; SKL3, overnight) of the same compound?
Its value is 2%.

And the “Retinol (% of taken up retinol)” value ([14]; SKL3, overnight)?
The value was 71%.
